# Results taken from PubChem BioAssay AID330 (DTP/NCI, 2004).
# “And” between values parts separate entries of the source, which are not always exact repeats. Identical values can stand only once. Toxic doses and inconclusive results are not listed.
# Test system: P388 leukemia ip, CD2F1 mice, survival T/C
# Assay: NCI In Vivo Anticancer Drug Screen. Data for tumor model P388 Leukemia (intraperitoneal) in CD2F1 (CDF1) mice
# Conditions: endpoint: median survival time, higher = longer survival
# How it was run: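 Mice carrying the transplanted tumor received test compound or vehicle. Survival was recorded in each group, and the value is the treated-group measurement divided by that of the vehicle-treated control group.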
# [1] = dose: 12.5 mg/kg/injection, schedule: Q01DX009 (ip), vehicle: saline with Tween-80
# [2] = dose: 25.0 mg/kg/injection, schedule: Q01DX009 (ip), vehicle: saline with Tween-80
# [3] = dose: 50.0 mg/kg/injection, schedule: Q01DX009 (ip), vehicle: saline with Tween-80
# [4] = dose: 100.0 mg/kg/injection, schedule: Q01DX009 (ip), vehicle: saline with Tween-80
# [5] = dose: 15.0 mg/kg/injection, schedule: Q01DX005 (ip), vehicle: Klucel (hydroxypropylcellulose) (HPC)
# [6] = dose: 30.0 mg/kg/injection, schedule: Q01DX005 (ip), vehicle: Klucel (hydroxypropylcellulose) (HPC)
# [7] = dose: 60.0 mg/kg/injection, schedule: Q01DX005 (ip), vehicle: saline with Tween-80
# [8] = dose: 120.0 mg/kg/injection, schedule: Q01DX005 (ip), vehicle: saline with Tween-80
# [9] = dose: 240.0 mg/kg/injection, schedule: Q01DX005 (ip), vehicle: saline with Tween-80
# [10] = dose: 200.0 mg/kg/injection, schedule: Q01DX009 (ip), vehicle: saline with Tween-80
# [11] = dose: 50.0 mg/kg/injection, schedule: Q01DX005 (ip), vehicle: Klucel (hydroxypropylcellulose) (HPC)
# [12] = dose: 100.0 mg/kg/injection, schedule: Q01DX005 (ip), vehicle: Klucel (hydroxypropylcellulose) (HPC)
# [13] = dose: 200.0 mg/kg/injection, schedule: Q01DX005 (ip), vehicle: Klucel (hydroxypropylcellulose) (HPC)
# [14] = dose: 400.0 mg/kg/injection, schedule: Q01DX009 (ip), vehicle: saline with Tween-80
# [15] = dose: 50.0 mg/kg/injection, schedule: Q01DX005 (ip), vehicle: saline with Tween-80
smiles,measurement,setting,value
CCC(c1ccc(OC)cc1)C(NCC(=O)N/N=C/c1ccc(N(C)C)cc1)c1ccc(OC)cc1 (centres undefined),T/C,"dose: 100.0 mg/kg/injection, schedule: Q01DX001 (ip), vehicle: saline with Tween-80",100 % of control
same,T/C,"dose: 200.0 mg/kg/injection, schedule: Q01DX001 (ip), vehicle: saline with Tween-80",100 % of control
same,T/C,"dose: 400.0 mg/kg/injection, schedule: Q01DX001 (ip), vehicle: saline with Tween-80",99 % of control
COc1cc(OC)c(NC(=O)ON2C(=O)c3ccccc3C2=O)cc1Cl,T/C,[1],119 % of control
same,T/C,[2],122 % of control
same,T/C,[3],122 % of control
same,T/C,[4],110 % of control
FC(F)(F)c1ccc2c(c1)N(CCCN1CCN(CCCl)CC1)c1ccccc1S2,T/C,"dose: 6.25 mg/kg/injection, schedule: Q04DX003 (ip), vehicle: saline",96 % of control
same,T/C,"dose: 12.5 mg/kg/injection, schedule: Q04DX003 (ip), vehicle: saline",101 % of control
same,T/C,"dose: 25.0 mg/kg/injection, schedule: Q04DX003 (ip), vehicle: saline",115 % of control
COc1ccc2cc3[nH]c(=O)cc(O)c3cc2c1OC,T/C,"dose: 12.5 mg/kg/injection, schedule: Q01DX009 (ip), vehicle: other",96 % of control
same,T/C,"dose: 25.0 mg/kg/injection, schedule: Q01DX009 (ip), vehicle: other",106 % of control
same,T/C,"dose: 50.0 mg/kg/injection, schedule: Q01DX009 (ip), vehicle: other",101 % of control
same,T/C,"dose: 100.0 mg/kg/injection, schedule: Q01DX009 (ip), vehicle: other",89 % of control
same,T/C,"dose: 200.0 mg/kg/injection, schedule: Q01DX009 (ip), vehicle: other",89 % of control
CCN(CC)CCOC(=O)c1ccc(N=NC2Sc3nc4ccccc4n3C2=O)cc1 (centres undefined),T/C,"dose: 7.5 mg/kg/injection, schedule: Q01DX005 (ip), vehicle: Klucel (hydroxypropylcellulose) (HPC)",92 % of control
same,T/C,[5],96 % of control
same,T/C,[6],96 % of control
CCCc1onc(-c2noc(CCC)c2CC)c1CC,T/C,"dose: 60.0 mg/kg/injection, schedule: Q01DX005 (ip), vehicle: saline",100 % of control
same,T/C,"dose: 120.0 mg/kg/injection, schedule: Q01DX005 (ip), vehicle: saline",95 % of control
same,T/C,"dose: 240.0 mg/kg/injection, schedule: Q01DX005 (ip), vehicle: saline",103 % of control
COc1cccc2cc(-n3nnc4ccccc43)c(=O)oc12,T/C,"dose: 30.0 mg/kg/injection, schedule: Q01DX005 (ip), vehicle: saline with Tween-80",94 % of control
same,T/C,[7],86 % of control and 91 % of control and 94 % of control
same,T/C,[8],94 % of control
same,T/C,[9],86 % of control and 87 % of control
Oc1cc2cccc[n+]2c2ccccc12,T/C,[5],99 % of control
same,T/C,[6],101 % of control
same,T/C,"dose: 60.0 mg/kg/injection, schedule: Q01DX005 (ip), vehicle: Klucel (hydroxypropylcellulose) (HPC)",118 % of control and 97 % of control
Fc1ccc(N(c2nc(Cl)nc(Cl)n2)c2nc(Cl)nc(Cl)n2)cc1,T/C,[1],113 % of control
same,T/C,[2],100 % of control
same,T/C,[3],113 % of control
COc1cc2c(cc1OC(C)=O)C(=O)C(Br)(Br)CCC2,T/C,"dose: 15.0 mg/kg/injection, schedule: Q01DX009 (ip), vehicle: saline with Tween-80",98 % of control
same,T/C,[2],103 % of control
same,T/C,"dose: 30.0 mg/kg/injection, schedule: Q01DX009 (ip), vehicle: saline with Tween-80",106 % of control
same,T/C,[3],100 % of control and 116 % of control
same,T/C,"dose: 60.0 mg/kg/injection, schedule: Q01DX009 (ip), vehicle: saline with Tween-80",100 % of control
same,T/C,[4],99 % of control
same,T/C,[10],106 % of control
CC(C)C[NH-].CC(C)C[NH-].[Cl][Pt+2]([Cl])([Cl])[Cl],T/C,"dose: 5.56 mg/kg/injection, schedule: Q01DX009 (ip), vehicle: saline with Tween-80",169 % of control
same,T/C,"dose: 8.33 mg/kg/injection, schedule: Q01DX009 (ip), vehicle: saline with Tween-80",166 % of control
same,T/C,[1],166 % of control and 181 % of control
C=C1C(=O)OC2C1C(OC(=O)/C(C)=C/C)CC1(C)C(O)CCC(=C)C21 (centres undefined),T/C,"dose: 12.5 mg/kg/injection, schedule: Q01DX005 (ip), vehicle: Klucel (hydroxypropylcellulose) (HPC)",106 % of control
same,T/C,"dose: 25.0 mg/kg/injection, schedule: Q01DX005 (ip), vehicle: Klucel (hydroxypropylcellulose) (HPC)",107 % of control
same,T/C,[11],114 % of control
same,T/C,[12],107 % of control
same,T/C,[13],98 % of control
c1ccc2c(c1)nc1n2CC2(CO1)COc1nc3ccccc3n1C2,T/C,[3],99 % of control
same,T/C,[4],99 % of control
same,T/C,[10],104 % of control
CCC(=O)OC(C)COc1ccc(C(C)(C)C)cc1 (centres undefined),T/C,[4],107 % of control
same,T/C,[10],114 % of control
same,T/C,[14],117 % of control
CN(N=O)C(=O)Nc1c[nH]c(=O)[nH]c1=O,T/C,"dose: 25.0 mg/kg/injection, schedule: Q01DX009 (ip), vehicle: saline sonified",186 % of control
same,T/C,"dose: 25.0 mg/kg/injection, schedule: Q04DX003 (ip), vehicle: saline with Tween-80",190 % of control
same,T/C,"dose: 50.0 mg/kg/injection, schedule: Q01DX009 (ip), vehicle: saline sonified",200 % of control
same,T/C,"dose: 50.0 mg/kg/injection, schedule: Q04DX003 (ip), vehicle: saline with Tween-80",195 % of control
same,T/C,"dose: 66.0 mg/kg/injection, schedule: Q04DX003 (ip), vehicle: saline with Tween-80",163 % of control
same,T/C,"dose: 100.0 mg/kg/injection, schedule: Q04DX003 (ip), vehicle: saline with Tween-80",186 % of control and 190 % of control
same,T/C,"dose: 150.0 mg/kg/injection, schedule: Q04DX003 (ip), vehicle: saline with Tween-80",90 % of control
C/C=C/[Se]c1ccccc1,T/C,"dose: 6.25 mg/kg/injection, schedule: Q01DX009 (ip), vehicle: saline with Tween-80",103 % of control
same,T/C,[1],106 % of control
same,T/C,[2],103 % of control
same,T/C,[4],105 % of control and 107 % of control and 121 % of control
C[N+]1(CSC(=O)c2ccccc2)CCCCC1,T/C,"dose: 3.12 mg/kg/injection, schedule: Q01DX009 (ip), vehicle: saline",110 % of control
same,T/C,"dose: 6.25 mg/kg/injection, schedule: Q01DX009 (ip), vehicle: saline",114 % of control
same,T/C,[1],115 % of control and 91 % of control
same,T/C,"dose: 12.5 mg/kg/injection, schedule: Q01DX009 (ip), vehicle: saline",107 % of control and 110 % of control
same,T/C,[3],100 % of control and 116 % of control
OCCn1nc2c(c1-c1ccncc1)CCCc1ccccc1-2,T/C,"dose: 100.0 mg/kg/injection, schedule: Q04DX002 (ip), vehicle: saline with Tween-80",97 % of control
same,T/C,"dose: 200.0 mg/kg/injection, schedule: Q04DX002 (ip), vehicle: saline with Tween-80",94 % of control
same,T/C,"dose: 400.0 mg/kg/injection, schedule: Q04DX002 (ip), vehicle: saline with Tween-80",94 % of control
O=C(CO)CC(=O)CCC(=O)Nc1cccc([N+](=O)[O-])c1,T/C,[7],105 % of control
same,T/C,[8],111 % of control
same,T/C,[9],105 % of control
O=P1(c2ccccc2)Cc2ccccc2N1Cc1ccccc1 (centres undefined),T/C,[15],100 % of control
same,T/C,"dose: 100.0 mg/kg/injection, schedule: Q01DX005 (ip), vehicle: saline with Tween-80",103 % of control
same,T/C,"dose: 200.0 mg/kg/injection, schedule: Q01DX005 (ip), vehicle: saline with Tween-80",104 % of control
CN=C(NC)c1ccc(NC(=O)c2cc(C)cc(C(=O)Nc3ccc(C(=NC)NC)cc3)c2)cc1,T/C,"dose: 3.12 mg/kg/injection, schedule: Q01DX005 (ip), vehicle: saline with Tween-80",103 % of control
same,T/C,"dose: 6.25 mg/kg/injection, schedule: Q01DX005 (ip), vehicle: saline with Tween-80",105 % of control
same,T/C,"dose: 12.5 mg/kg/injection, schedule: Q01DX005 (ip), vehicle: saline with Tween-80",107 % of control
COc1ccc(OC(=O)CCCl)cc1,T/C,[4],113 % of control
same,T/C,[10],108 % of control
same,T/C,[14],104 % of control
Cc1nc2sc3c(c2c2nncn12)CCCC3,T/C,[11],103 % of control
same,T/C,[12],97 % of control
same,T/C,[13],97 % of control
c1ccc(CCNC2CCc3ccccc3C2)cc1 (centres undefined),T/C,[15],93 % of control
CC1CN=C(c2ccc(NC(=O)NCCCCCCCCCNC(=O)Nc3ccc(C4=NCC(C)N4)cc3)cc2)N1 (centres undefined),T/C,"dose: 12.5 mg/kg/injection, schedule: Q01DX005 (ip), vehicle: saline + Tween-80 + alcohol",106 % of control and 110 % of control
same,T/C,"dose: 25.0 mg/kg/injection, schedule: Q01DX005 (ip), vehicle: saline + Tween-80 + alcohol",105 % of control and 118 % of control
same,T/C,"dose: 50.0 mg/kg/injection, schedule: Q01DX005 (ip), vehicle: saline + Tween-80 + alcohol",110 % of control and 121 % of control
same,T/C,"dose: 100.0 mg/kg/injection, schedule: Q01DX005 (ip), vehicle: saline + Tween-80 + alcohol",108 % of control
CCOC(=O)c1ccc(NC(CCNC2CCCCC2)=NC(C)(C)C)cc1,T/C,[3],96 % of control
same,T/C,[4],97 % of control
same,T/C,[10],96 % of control
